Laboratory results from PMC8286840, “Identifying SARS-CoV-2 antiviral compounds by screening for small molecule inhibitors of Nsp3 papain-like protease” (Biochemical Journal, 2021).
Structures can show the parent of a compound that is named as a salt. Where two headings read alike, the source gives them in different places. Where a SMILES comes first, the peptide text is derived from it.

Assays:
[1] = target: T1, SARS-CoV-2 PLpro (nsp3 1564–1878) (Severe acute respiratory syndrome coronavirus 2, UniProt P0DTD1); experiment: biochemical; set-up: FRET-quenched peptide (Pro3) cleavage by PLpro, 10 min pre-incubation, slope over 20 min, normalised to no-compound control; settings: read-out: % of control remaining
[2] = target: T1, SARS-CoV-2 PLpro (nsp3 1564–1878); experiment: biochemical; set-up: FRET-quenched peptide (Pro3) cleavage by PLpro, 10 min pre-incubation, slope over 20 min, normalised to no-compound control; settings: read-out: % of control remaining; remark: listed apart in the source

C[C@H](CCC(=O)NCC(=O)O)[C@H]1CC[C@H]2[C@@H]3[C@H](O)C[C@@H]4C[C@H](O)CC[C@]4(C)[C@H]3C[C@H](O)[C@]12C [Glycocholic acid]
remaining activity at 1.25 µM ([1]; Well no.=7068, low concentration screen): 106% | remaining activity at 1.25 µM ([1]; Well no.=7165, low concentration screen): 104% | remaining activity at 3.75 µM ([2]; Well no.=7068, high concentration screen): 105% | remaining activity at 3.75 µM ([2]; Well no.=7165, high concentration screen): 101%

O=C(O)CO [Glycolic acid]
remaining activity at 1.25 µM ([1]; Well no.=6981, low concentration screen): 97.8% | remaining activity at 3.75 µM ([2]; Well no.=6981, high concentration screen): 98.4%

C[N+]1(C)CCC(OC(=O)C(O)(c2ccccc2)C2CCCC2)C1 (stereo not shown) [Glycopyrrolate]
remaining activity at 1.25 µM ([1]; Well no.=7471, low concentration screen): 102% | remaining activity at 3.75 µM ([2]; Well no.=7471, high concentration screen): 103%

C[C@H](CCC(=O)NCC(=O)O)[C@H]1CC[C@H]2[C@@H]3[C@@H](O)C[C@@H]4C[C@H](O)CC[C@]4(C)[C@H]3CC[C@]12C [Glycoursodeoxycholic acid]
remaining activity at 1.25 µM ([1]; Well no.=7311, low concentration screen): 108% | remaining activity at 3.75 µM ([2]; Well no.=7311, high concentration screen): 106%

NCC(=O)NCC(=O)O [Glycylglycine] (H-Gly-Gly-OH)
remaining activity at 1.25 µM ([1]; Well no.=6641, low concentration screen): 100% | remaining activity at 3.75 µM ([2]; Well no.=6641, high concentration screen): 102%

CC1(C)[C@@H](O[C@H]2O[C@H](C(=O)O)[C@@H](O)[C@H](O)[C@H]2O[C@@H]2O[C@H](C(=O)O)[C@@H](O)[C@H](O)[C@H]2O)CC[C@]2(C)[C@H]3C(=O)C=C4[C@@H]5C[C@@](C)(C(=O)O)CC[C@]5(C)CC[C@@]4(C)[C@]3(C)CC[C@@H]12 [Glycyrrhizic acid]
remaining activity at 1.25 µM ([1]; Well no.=5196, low concentration screen): 106% | remaining activity at 3.75 µM ([2]; Well no.=5196, high concentration screen): 93.8%

COc1cc2c(c(OC)c1OC)-c1c(cc3c(c1OC)OCO3)C[C@H](C)[C@](C)(O)C2 [Gomisin A]
remaining activity at 1.25 µM ([1]; Well no.=5817, low concentration screen): 103% | remaining activity at 3.75 µM ([2]; Well no.=5817, high concentration screen): 104%

CC(C)C[C@H](NC(=O)CNC(=O)[C@H](Cc1ccc(O)cc1)NC(=O)[C@H](CO)NC(=O)[C@H](Cc1c[nH]c2ccccc12)NC(=O)[C@H](Cc1cnc[nH]1)NC(=O)[C@@H]1CCC(=O)N1)C(=O)N[C@@H](CCCNC(=N)N)C(=O)N1CCC[C@H]1C(=O)NCC(N)=O [Gonadorelin (acetate)]
remaining activity at 1.25 µM ([1]; Well no.=6276, low concentration screen): 104% | remaining activity at 3.75 µM ([2]; Well no.=6276, high concentration screen): 106%

CC(C)C[C@H](NC(=O)[C@@H](COC(C)(C)C)NC(=O)[C@H](Cc1ccc(O)cc1)NC(=O)[C@H](CO)NC(=O)[C@H](Cc1c[nH]c2ccccc12)NC(=O)[C@H](Cc1cnc[nH]1)NC(=O)[C@@H]1CCC(=O)N1)C(=O)N[C@@H](CCCNC(=N)N)C(=O)N1CCC[C@H]1C(=O)NNC(N)=O [Goserelin (acetate)]
remaining activity at 1.25 µM ([1]; Well no.=7338, low concentration screen): 97.1% | remaining activity at 3.75 µM ([2]; Well no.=7338, high concentration screen): 95%

CC(C)C[C@H](NC(=O)[C@@H](COC(C)(C)C)NC(=O)[C@H](Cc1ccc(O)cc1)NC(=O)[C@H](CO)NC(=O)[C@H](Cc1c[nH]c2ccccc12)NC(=O)[C@H](Cc1cnc[nH]1)NC(=O)[C@@H]1CCC(=O)N1)C(=O)N[C@@H](CCCNC(=N)N)C(=O)N1CCC[C@H]1C(=O)NNC(N)=O [Goserelin]
remaining activity at 1.25 µM ([1]; Well no.=1624, low concentration screen): 98.9% | remaining activity at 3.75 µM ([2]; Well no.=1624, high concentration screen): 101%

Cc1cc2c(C(C)C)c(O)c(O)c(C=O)c2c(O)c1-c1c(C)cc2c(C(C)C)c(O)c(O)c(C=O)c2c1O [Gossypol]
remaining activity at 1.25 µM ([1]; Well no.=3325, low concentration screen): 98.8% | remaining activity at 1.25 µM ([1]; Well no.=3953, low concentration screen): 102% | remaining activity at 3.75 µM ([2]; Well no.=3325, high concentration screen): 99.3% | remaining activity at 3.75 µM ([2]; Well no.=3953, high concentration screen): 98.4%

CN(C)Cc1c[nH]c2ccccc12 [Gramine]
remaining activity at 1.25 µM ([1]; Well no.=3284, low concentration screen): 97.9% | remaining activity at 3.75 µM ([2]; Well no.=3284, high concentration screen): 99.5%

CN1[C@@H]2CCC[C@H]1C[C@@H](NC(=O)c1nn(C)c3ccccc13)C2 [Granisetron (Hydrochloride)]
remaining activity at 1.25 µM ([1]; Well no.=6223, low concentration screen): 104% | remaining activity at 3.75 µM ([2]; Well no.=6223, high concentration screen): 102%

CN1[C@@H]2CCC[C@H]1C[C@@H](NC(=O)c1nn(C)c3ccccc13)C2 [Granisetron HCl]
remaining activity at 1.25 µM ([1]; Well no.=5189, low concentration screen): 99.3% | remaining activity at 3.75 µM ([2]; Well no.=5189, high concentration screen): 97.5%

CN1[C@@H]2CCC[C@H]1C[C@@H](NC(=O)c1nn(C)c3ccccc13)C2 [Granisetron]
remaining activity at 1.25 µM ([1]; Well no.=1910, low concentration screen): 93.3% | remaining activity at 3.75 µM ([2]; Well no.=1910, high concentration screen): 91.6%

CCc1nc2c(C)nc(C)cc2n1-c1ccc(CCNC(=O)NS(=O)(=O)c2ccc(C)cc2)cc1 [Grapiprant]
remaining activity at 1.25 µM ([1]; Well no.=6998, low concentration screen): 97.1% | remaining activity at 3.75 µM ([2]; Well no.=6998, high concentration screen): 95.9%

Cn1c(-c2ccc3c(c2)OCO3)cc(=O)c2ccccc21 [Graveoline]
remaining activity at 1.25 µM ([1]; Well no.=3147, low concentration screen): 102% | remaining activity at 3.75 µM ([2]; Well no.=3147, high concentration screen): 104%

CC1(C)[C@@H](O)C[C@H]2[C@](C)(O)[C@@H]3CC[C@@H]4[C@@H](O)[C@@]3(C[C@@H](O)[C@@]21O)C[C@@]4(C)O [Grayanotoxin III]
remaining activity at 1.25 µM [1]: 103% | remaining activity at 3.75 µM [2]: 104%

COc1ccccc1O [Guaiacol]
remaining activity at 1.25 µM ([1]; Well no.=1626, low concentration screen): 96.8% | remaining activity at 3.75 µM ([2]; Well no.=1626, high concentration screen): 98.8%

COc1ccccc1OCC(O)CO (stereo not shown) [Guaifenesin]
remaining activity at 1.25 µM ([1]; Well no.=2180, low concentration screen): 97.5% | remaining activity at 3.75 µM ([2]; Well no.=2180, high concentration screen): 100%

N=C(N)N/N=C/c1c(Cl)cccc1Cl [Guanabenz (Acetate)]
remaining activity at 1.25 µM ([1]; Well no.=6652, low concentration screen): 94.5% | remaining activity at 3.75 µM ([2]; Well no.=6652, high concentration screen): 100%

N=C(N)N/N=C/c1c(Cl)cccc1Cl [Guanabenz acetate]
remaining activity at 1.25 µM ([1]; Well no.=604, low concentration screen): 96.6% | remaining activity at 3.75 µM ([2]; Well no.=604, high concentration screen): 96.2%

N=C(N)N/N=C/c1c(Cl)cccc1Cl [Guanabenz]
remaining activity at 1.25 µM ([1]; Well no.=1693, low concentration screen): 105% | remaining activity at 3.75 µM ([2]; Well no.=1693, high concentration screen): 105%

N=C(N)NC(=O)Cc1c(Cl)cccc1Cl [Guanfacine (hydrochloride)]
remaining activity at 1.25 µM ([1]; Well no.=6275, low concentration screen): 101% | remaining activity at 3.75 µM ([2]; Well no.=6275, high concentration screen): 102%

N=C(N)NC(=O)Cc1c(Cl)cccc1Cl [Guanfacine.HCl]
remaining activity at 1.25 µM ([1]; Well no.=1894, low concentration screen): 95.7% | remaining activity at 3.75 µM ([2]; Well no.=1894, high concentration screen): 95.2%

NC(N)=NCCSSCCN=C(N)N [Guanidinoethyl disulfide dihydrobromide]
remaining activity at 1.25 µM ([1]; Well no.=429, low concentration screen): 89.1% | remaining activity at 3.75 µM ([2]; Well no.=429, high concentration screen): 88.8%

NC(N)=N[C@@H](CC(=O)O)C(=O)O [Guanidinosuccinic acid]
remaining activity at 1.25 µM ([1]; Well no.=8176, low concentration screen): 109% | remaining activity at 3.75 µM ([2]; Well no.=8176, high concentration screen): 101%

NC(N)=Nc1ccc2[nH]c3c(c2c1)C[C@@]1(O)[C@H]2Cc4ccc(O)c5c4[C@@]1(CCN2CC1CC1)[C@H]3O5 [Guanidinyl-naltrindole di-trifluoroacetate]
remaining activity at 1.25 µM ([1]; Well no.=763, low concentration screen): 96% | remaining activity at 3.75 µM ([2]; Well no.=763, high concentration screen): 99.9%

Nc1nc2c(ncn2[C@@H]2O[C@H](COP(=O)(O)OP(=O)(O)O)[C@@H](O)[C@H]2O)c(=O)[nH]1 [Guanosine 5'-diphosphate disodium salt]
remaining activity at 1.25 µM ([1]; Well no.=8939, low concentration screen): 98.9% | remaining activity at 3.75 µM ([2]; Well no.=8939, high concentration screen): 96.6%

Nc1nc2c(ncn2[C@@H]2O[C@H](CO)[C@@H](O)[C@H]2O)c(=O)[nH]1 [Guanosine]
remaining activity at 1.25 µM ([1]; Well no.=5248, low concentration screen): 96.5% | remaining activity at 1.25 µM ([1]; Well no.=6833, low concentration screen): 97.7% | remaining activity at 1.25 µM ([1]; Well no.=7708, low concentration screen): 94.4% | remaining activity at 3.75 µM ([2]; Well no.=5248, high concentration screen): 98% | remaining activity at 3.75 µM ([2]; Well no.=6833, high concentration screen): 99.5% | remaining activity at 3.75 µM ([2]; Well no.=7708, high concentration screen): 91.8%

CSc1nc2ccc3nc(NC(=O)C(c4ccccc4)c4ccccc4)sc3c2s1 [Gue1654]
remaining activity at 1.25 µM ([1]; Well no.=5404, low concentration screen): 90.4% | remaining activity at 3.75 µM ([2]; Well no.=5404, high concentration screen): 92.4%
